Key:
[1] = target: T1, human endothelin A receptor (Homo sapiens, UniProt P25101); experiment: Endothelin A receptor inhibitory effect (aequorin light emission, endothelin at EC80); format: cell-based; conditions: for IC50: CHO-K1-mt aequorin cells expressing human endothelin A receptor, endothelin at EC80, read-out: ETA receptor inhibitory effect; for ETA selectivity (ETB/ETA): ETB IC50 value/ETA IC50 value
T1 construct: expressed in transfected cells; host or cells: CHO-K1-mt aequorin cells
T1 sequence (P25101 21-427): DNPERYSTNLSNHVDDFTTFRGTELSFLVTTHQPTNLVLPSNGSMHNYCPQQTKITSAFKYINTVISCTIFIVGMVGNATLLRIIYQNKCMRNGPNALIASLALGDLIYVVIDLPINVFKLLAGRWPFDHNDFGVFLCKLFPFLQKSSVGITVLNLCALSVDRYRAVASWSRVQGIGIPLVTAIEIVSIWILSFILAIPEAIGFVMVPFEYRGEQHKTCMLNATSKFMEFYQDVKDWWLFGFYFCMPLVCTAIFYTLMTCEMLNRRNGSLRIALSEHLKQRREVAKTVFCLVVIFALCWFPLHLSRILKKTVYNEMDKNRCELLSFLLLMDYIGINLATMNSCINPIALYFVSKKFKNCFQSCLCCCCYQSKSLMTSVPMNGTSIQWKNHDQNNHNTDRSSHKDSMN
Description: The inhibitory effect on an endothelin A receptor was studied by the following method.
CHO-K1-mt aequorin cells forced to express a human endothelin A receptor (Accession Number NP_001948.1) were cultured in an antibiotic-free medium for 18 hours, then treated with PBS-EDTA (5 mM EDTA), centrifuged (2 min, 405×g, room temperature), and then suspended in an assay buffer (DMEM/HAM's F12 with HEPES+0.1% BSA protease free).
1×10^6 cells/mL of the cells were incubated at room temperature for 4 hours in the presence of coelenterazine h (Molecular Probes, Inc.) (final concentration: 5 µM). Agonistic reaction based on endothelin was confirmed to determine an endothelin concentration corresponding to EC80.
Subsequently, 50 µL (10000 cells/well) of the cell suspension treated with coelenterazine h and 50 µL of an assay buffer containing a test substance (final concentration: 0.5% in DMSO) were added to each well of a 96-well plate. 15 minutes later, endothelin was added such that its final concentration was an EC80 concentration. Receptor activity was measured as the quantity of light emission in FDSS6000 (Hamamatsu Photonics K.K.). IC50 values were calculated using XLfit (ID Business Solutions Ltd. (IDBS)).

[2] = test system: BigET-1-induced blood pressure; experiment: BigET-1-induced blood pressure evaluation test; format: in vivo, Wistar rat; conditions: 30 mg/kg into the duodenum 1 hour before BigET-1 (20 μg/kg); Mean ± SD, N = 6
Description: Each 8- to 20-week-old male Wistar rat was subjected to tracheal catheter treatment for airway management, carotid catheter treatment for blood pressure measurement, femoral venous catheter treatment for BigET-1 administration, and duodenal catheter treatment for test substance administration under analgetic treatment and urethane anesthesia. After confirmation that the blood pressure and the heart rate became stable, a vehicle (0.5% methylcellulose 400 solution) or 30 mg/kg (5 ml/kg) of a test substance adjusted with a vehicle was administered into the duodenum. One hour thereafter, BigET-1 (20 μg/kg) was administered thereto, and the blood pressure was monitored until 60 minutes after BigET-1 administration. The test was conducted at n=6 per group. In analysis, systolic blood pressure and diastolic blood pressure were determined for 20 seconds every 5 minutes from 5 minutes before BigET-1 administration to 60 minutes after BigET-1 administration, and AUC0-60 min (mmHg*min) for 60 minutes after BigET-1 administration was calculated using a delta value from the value obtained 5 minutes before BigET-1 administration. The Student's t test was used for the comparison of AUC between the vehicle administration group and the test substance administration group.

[3] = target: T2, CYP2C9 (Homo sapiens, UniProt P11712); experiment: CYP2C9 inhibitory effect (liver microsome fraction, diclofenac substrate); format: in vitro ADME; conditions: liver microsome fraction 0.5 mg/mL, diclofenac 2.5 μM
T2 construct: A frozen liver microsome fraction was thawed on ice; from tissue; host or cells: liver microsome fraction
Description: The inhibitory effect on CYP2C9 was evaluated by the following method. • (1) A frozen liver microsome fraction was thawed on ice and diluted with a potassium phosphate buffer (PPB) to a final concentration of 0.5 mg/mL. • (2) A substrate for evaluation (diclofenac: D6899 from Sigma-Aldrich Co. LLC) was added thereto such that its final concentration was 2.5 μM. • (3) The mixture was slowly mixed and incubated at 37±1° C. for 5 minutes to prepare a reaction solution. • (4) 801 μL of the reaction solution was dispensed to each tube, and an evaluation compound serially diluted with 0.9 μL of DMSO was added thereto such that its final concentration was 9.1 to 20000 nM (⅓ dilutions with 8 concentrations). In this context, 0.9 μL of DMSO was added to a negative control group, and 0.9 μL of sulfaphenazole (S0758 from Sigma-Aldrich Co. LLC) adjusted to a final concentration of 1 μM with DMSO was added to a positive control group. • (5) After mixing, a 270 μL aliquot was transferred to each of two fresh tubes and incubated in a shaking water bath at 37±1° C. for 5 minutes. • (6) Reaction was started by the addition of 30 μL of 10 mM NADPH, and the tubes were incubated at 37° C.±1° C. for 10 minutes. • (7) The tubes were taken out of the shaking water bath, and the reaction was terminated by the addition of 300 μL of a reaction stop solution. After mixing, the tubes were centrifuged at 1021×g at 4° C. for 20 minutes. • (8) The amount of the substrate for evaluation metabolized was determined by LC-MS/MS to calculate the rate of inhibition at each concentration of the evaluation compound. • (9) IC50 values were calculated using GraphPad Prism5. A sample having an IC50 value of 1 μM or lower was given “++”; a sample having an IC50 value in the range of higher than 1 μM and 10 μM or lower was given “+”; and a sample having an IC50 value of higher than 10 μM was given “−”.

T2 sequence (P11712 whole entry): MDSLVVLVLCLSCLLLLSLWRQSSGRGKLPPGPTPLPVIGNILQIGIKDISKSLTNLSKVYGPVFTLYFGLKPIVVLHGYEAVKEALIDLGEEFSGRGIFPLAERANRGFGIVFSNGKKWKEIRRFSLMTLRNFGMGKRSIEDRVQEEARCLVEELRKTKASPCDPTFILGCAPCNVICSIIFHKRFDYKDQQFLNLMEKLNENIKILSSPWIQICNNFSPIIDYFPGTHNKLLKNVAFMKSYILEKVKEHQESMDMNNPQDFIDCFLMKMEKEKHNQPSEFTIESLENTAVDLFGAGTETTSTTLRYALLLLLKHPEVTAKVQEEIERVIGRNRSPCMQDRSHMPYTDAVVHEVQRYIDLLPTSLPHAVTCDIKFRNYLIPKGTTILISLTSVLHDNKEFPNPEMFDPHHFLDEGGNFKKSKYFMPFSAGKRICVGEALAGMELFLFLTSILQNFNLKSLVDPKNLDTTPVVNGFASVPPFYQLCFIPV

Compound | IC50 [1] [nM] | ETA selectivity (ETB/ETA) [1] | Diastolic blood pressure delta AUC0-60 min [2] [mmHg*min] | Systolic blood pressure delta AUC0-60 min [2] [mmHg*min] | IC50 [3] [nM]
Cc1cc2c(cc1C#Cc1ncccc1S(=O)(=O)Nc1noc(C)c1C)C(C)(C)OC2 [Example 1, N-(4,5-Dimethylisoxazol-3-yl)-2-((3,3,6-trimethyl-1,3-dihydroisobenzofuran-5-yl)ethynyl)pyridine-3-sulfonamide] | ≤ 1 | ++ (ETB IC50 value/ETA IC50 value of higher than 5000) | 278 ± 539 | 83 ± 508 | > 10000
Cc1cc2c(cc1C#Cc1ncccc1S(=O)(=O)Nc1noc(C)c1C)COC2 [Example 3, N-(4,5-Dimethylisoxazol-3-yl)-2-((6-methyl-1,3-dihydroisobenzofuran-5-yl)ethynyl)pyridine-3-sulfonamide] | ≤ 1 | ++ (ETB IC50 value/ETA IC50 value of higher than 5000) | 322 ± 435 | 113 ± 565 | > 10000
Cc1cc2c(cc1C#Cc1ncccc1S(=O)(=O)Nc1noc(C)c1C)C(=O)OC2 [Example 4, N-(4,5-Dimethylisoxazol-3-yl)-2-((6-methyl-3-oxo-1,3-dihydroisobenzofuran-5-yl)ethynyl)pyridine-3-sulfonamide] | ≤ 1 | ++ (ETB IC50 value/ETA IC50 value of higher than 5000) |  |  | > 10000
Cc1onc(NS(=O)(=O)c2cccnc2C#Cc2ccc3c(c2)COC3)c1C [Example 5, 2-((1,3-Dihydroisobenzofuran-5-yl)ethynyl)-N-(4,5-dimethylisoxazol-3-yl)pyridine-3-sulfonamide] | 1 to 10 |  |  |  | > 10000
Cc1onc(NS(=O)(=O)c2cccnc2C#Cc2cc3c(cc2Cl)COC3)c1C [Example 6, 2-((6-Chloro-1,3-dihydroisobenzofuran-5-yl)ethynyl)-N-(4,5-dimethylisoxazol-3-yl)pyridine-3-sulfonamide] | 1 to 10 |  |  |  | 1000 to 10000
Cc1cc2c(cc1C#Cc1ncccc1S(=O)(=O)Nc1noc(C)c1Cl)C(C)(C)OC2 [Example 7, N-(4-Chloro-5-methylisoxazol-3-yl)-2-((3,3,6-trimethyl-1,3-dihydroisobenzofuran-5-yl)ethynyl)pyridine-3-sulfonamide] | ≤ 1 |  |  |  | 1000 to 10000
Cc1cc2c(cc1C#Cc1ncccc1S(=O)(=O)Nc1onc(C)c1C)C(C)(C)OC2 [Example 8, N-(3,4-Dimethylisoxazol-5-yl)-2-((3,3,6-trimethyl-1,3-dihydroisobenzofuran-5-yl)ethynyl)pyridine-3-sulfonamide] | ≤ 1 | ++ (ETB IC50 value/ETA IC50 value of higher than 5000) |  |  | > 10000
Cc1cc2c(cc1C#Cc1ncccc1S(=O)(=O)Nc1onc(C)c1Cl)C(C)(C)OC2 [Example 9, N-(4-Chloro-3-methylisoxazol-5-yl)-2-((3,3,6-trimethyl-1,3-dihydroisobenzofuran-5-yl)ethynyl)pyridine-3-sulfonamide] | ≤ 1 | ++ (ETB IC50 value/ETA IC50 value of higher than 5000) |  |  | 1000 to 10000
COc1nc(C)cnc1NS(=O)(=O)c1cccnc1C#Cc1cc2c(cc1C)COC2(C)C [Example 10, N-(3-Methoxy-5-methylpyrazin-2-yl)-2-((3,3,6-trimethyl-1,3-dihydroisobenzofuran-5-yl)ethynyl)pyridine-3-sulfonamide] | ≤ 1 | ++ (ETB IC50 value/ETA IC50 value of higher than 5000) |  |  | > 10000
